The results in this text go back to US20090181948A1, “DIAMINE DERIVATIVE” (KYOWA HAKKO KOGYO CO., LTD., priority 2005, published 2009).

T1 sequence (Q9QYN8 whole entry): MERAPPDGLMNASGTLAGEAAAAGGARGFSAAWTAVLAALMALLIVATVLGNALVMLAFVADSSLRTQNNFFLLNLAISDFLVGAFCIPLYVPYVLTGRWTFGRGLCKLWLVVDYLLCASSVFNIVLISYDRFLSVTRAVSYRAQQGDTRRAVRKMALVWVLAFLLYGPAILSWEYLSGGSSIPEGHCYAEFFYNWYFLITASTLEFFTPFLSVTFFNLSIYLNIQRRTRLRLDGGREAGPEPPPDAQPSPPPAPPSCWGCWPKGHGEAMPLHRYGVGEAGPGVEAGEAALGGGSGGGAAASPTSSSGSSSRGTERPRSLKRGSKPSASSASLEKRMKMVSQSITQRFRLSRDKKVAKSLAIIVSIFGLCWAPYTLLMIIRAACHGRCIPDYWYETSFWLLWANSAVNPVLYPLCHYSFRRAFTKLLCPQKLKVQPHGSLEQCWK

This experiment addresses T1, histamine H3 receptor (Rattus norvegicus, UniProt Q9QYN8).
T1 construct: from tissue; host or cells: rat striatum (Sprague-Dawley, male, 6 weeks), membrane homogenate
The experiment in a line: Histamine H3 receptor binding assay ([3H]-Nα-methylhistamine binding to rat striatum homogenate). The note with it: 1 μmol/L test compound; [3H]-Nα-methylhistamine 1 nmol/L; striata of Sprague-Dawley male rats, 25° C., 1 hour; read-out: Inhibition ratio of [3H]-Nα-methylhistamine binding. How it is done: To the striata of Sprague-Dawley male rats (6 weeks of age), a 10-fold volume of lysis buffer {50 mmol/L [[…] (Tris)]/HCl (pH 7.4), 5 mmol/L ethylenediaminetetraacetic acid (EDTA), a protease inhibitor mixture [1 mg/mL phenylmethylsulfonyl fluoride (PMSF), 1 μg/mL pepstatin A, 1 μg/mL leupeptin, 1 μg/mL chymostatin]} was added and the striata were homogenized. The resulting homogenate was centrifuged (30,000×g, 4° C., 30 min), and the obtained precipitate was resuspended in a 10-fold volume of lysis buffer, followed by centrifugation under the same condition. To the obtained precipitate, a 3-fold volume of lysis buffer was added to suspend the precipitate, and the resulting tissue homogenate was used for a test.
A test compound was dissolved in an assay buffer [50 mmol/L Tris/HCl (pH 7.4), 5 mmol/L EDTA], and [^3H]-N^α-methylhistamine (1 nmol/L) and the tissue homogenate (20 μg, in terms of protein amount) were added thereto, and then, the mixture was incubated at 25° C. for 1 hour. Then, the reaction was terminated by rapid suction filtration on a glass filter [GF/B: Whatman, previously soaked in 0.3 w/v % polyethylenimine for about 30 min]. Then, the glass filter was washed three times with 3 mL of assay buffer. This glass filter was transferred into a scintillation vial and dried at 60° C. for 30 minutes. Then, 0.5 mL of Ultimagold (Perkin Elmer) was added thereto, and the radioactivity (binding amount of [^3H]-N^α-methylhistamine) was measured using a liquid scintillation counter. The obtained value was used as a binding amount in the presence of the test compound. The same procedure as described above was carried out in the absence of the test compound, and the binding amount of [^3H]-N^α-methylhistamine obtained at this time was used as a binding amount in the absence of the test compound. Further, the binding amount of [^3H]-N^α-methylhistamine obtained in the presence of 10 μmol/L thioperamide was used as a non-specific binding amount. An inhibitory action of [^3H]-N^α-methylhistamine binding was represented by an inhibition ratio in terms of 1 μmol/L of the test compound calculated by the following Equation (1).
Inhibition ratio(%)={1−[(Binding amount in the presence of test compound)−(Non-specific binding amount)]/[(Binding amount in the absence of test compound)−(Non-specific binding amount)]}×100 (1)
As to `N#CC(C#N)=C1N(CCCN2CCCCC2)CCN1CCNC1CCCCC1` [Compound 63, [1-(2-Cyclohexylaminoethyl)-3-(3-piperidinopropyl)imidazolidin-2-ylidene]malononitrile Difumarate], the inhibition at 1 µM was not below 80%. To `CN(CCCN1CCC(F)(F)C1)C(=C(C#N)C#N)N1CCC(N2CCCCC2)CC1` [Compound 169, ({N-[3-(3,3-difluoropyrrolidin-1-yl)propyl]-N-methylamino}(4-piperidinopiperidino)methylene)malononitrile] belongs not below 80%.

Take `CC1CCN(CCCN2CCN(CCCN3CC(C)CC(C)C3)C2=C(C#N)C#N)CC1` (stereo not drawn) [Compound 106, {1-[3-(3,5-Dimethylpiperidino)propyl]-3-[3-(4-methylpiperidino)propyl]imidazolidin-2-ylidene}malononitrile]: the inhibition at 1 µM is not below 80%. For the compound `CC1CCCN1CCCN1CCN(CCCN2CCCC2C)C1=NC#N` (stereo not drawn) [Compound 140, 1,3-Bis[3-(2-methylpyrrolidin-1-yl)propyl]imidazolidin-2-ylidenecyanoamide Difumarate], the inhibition at 1 µM is not below 80%. Turning to `N#CC(C#N)=C1N(CCCNC2CCCCC2)CCN1CCN1CCCCC1` [Compound 62, [1-(3-Cyclohexylaminopropyl)-3-(2-piperidinoethyl)imidazolidin-2-ylidene]malononitrile], the inhibition at 1 µM is not below 80%.

For the compound `CC1CCCN1CC1CCN(C(NCCN2CCCCC2)=C(C#N)C#N)CC1` (stereo not drawn) [Compound 148, {[4-(2-Methylpyrrolidin-1-ylmethyl)piperidino](2-piperidinoethylamino)methylene}malononitrile], the inhibition at 1 µM is not below 80%. In the case of `CC1CC(C)CN(CCCN2CCN(CCCN3CCC(O)C3)C2=C(C#N)C#N)C1` (stereo not drawn) [Compound 107, {1-[3-(3,5-Dimethylpiperidino)propyl]-3-[3-(3-hydroxypyrrolidin-1-yl)propyl]imidazolidin-2-ylidene}malononitrile], the inhibition at 1 µM was not below 80%. To `CC1CCCN(CCCN2CCN(CCCN3CCOCC3)C2=C(C#N)C#N)C1` (stereo not drawn) [Compound 80, {1-[3-(3-Methylpiperidino)propyl]-3-(3-morpholinopropyl)imidazolidin-2-ylidene}malononitrile] belongs not below 80%; to `CC1CCCN(CCCN2CCN(CCCN3CC(C)CC(C)C3)C2=C(C#N)C#N)C1` (stereo not drawn) [Compound 105, {1-[3-(3,5-Dimethylpiperidino)propyl]-3-[3-(3-methylpiperidino)propyl]imidazolidin-2-ylidene}malononitrile], not below 80%; to `CC(C)N1CCC(N2CCN(CCN3CCCCC3)C2=C(C#N)C#N)CC1` [Compound 207, [1-(1-Isopropylpiperidin-4-yl)-3-(2-piperidinoethyl)imidazolidin-2-ylidene]malononitrile], not below 80%. For `CC1CCCN1CCCN1CCN(CCCN2CC=CCC2)C1=C(C#N)C#N` (stereo not drawn) [Compound 92, {1-[3-(1,2,3,6-Tetrahydropyridin-1-yl)propyl]-3-[3-(2-methylpyrrolidin-1-yl)propyl]imidazolidin-2-ylidene}malononitrile], the inhibition at 1 µM was not below 80%.

Take `C[C@@H]1C[C@H](C)CN(CCN2CCN(CCCN3CCCC3)C2=C(C#N)C#N)C1` [Compound 18, {1-[2-(Cis-3,5-dimethylpiperidino)ethyl]-3-[3-(pyrrolidin-1-yl)propyl]imidazolidin-2-ylidene}malononitrile]: the inhibition at 1 µM was not below 80%. Regarding `CC1CC(C)CN(CCCN2CCN(CCCN3C(C)CCCC3C)C2=C(C#N)C#N)C1` (stereo not drawn) [Compound 108, {1-[3-(2,6-Dimethylpiperidino)propyl]-3-[3-(3,5-dimethylpiperidino)propyl]imidazolidin-2-ylidene}malononitrile], the inhibition at 1 µM was not below 80%. For the compound `N#CC(C#N)=C1N(CCCN2CCCCCC2)CCN1CCCN1CCCC1` [Compound 69, {1-[3-(Azepan-1-yl)propyl]-3-[3-(pyrrolidin-1-yl)propyl]imidazolidin-2-ylidene}malononitrile], the inhibition at 1 µM was not below 80%. Consider `N#CC(C#N)=C1N(CCCCN2CCCCC2)CCN1CCCCN1CCCCC1` [Compound 9, [1,3-Bis(4-piperidinobutyl)imidazolidin-2-ylidene]malononitrile], for which the inhibition at 1 µM was not below 80%. In the case of `CC1CCCN1CCCN1CCN(CCCN2CCC(O)C2)C1=C(C#N)C#N` (stereo not drawn) [Compound 114, {1-[3-(3-Hydroxypyrrolidin-1-yl)propyl]-3-[3-(2-methylpyrrolidin-1-yl)propyl]imidazolidin-2-ylidene}malononitrile] it was not below 80%. To `N#CC(C#N)=C1N(CCCN2CCCCCC2)CCN1CCN1CCCCC1` [Compound 46, {1-[3-(Azepan-1-yl)propyl]-3-(2-piperidinoethyl)imidazolidin-2-ylidene}malononitrile] belongs not below 80%. Consider `CC1CCCN(CCCN2CCN(CCCN3CC=CCC3)C2=C(C#N)C#N)C1` (stereo not drawn) [Compound 87, {1-[3-(1,2,3,6-Tetrahydropyridin-1-yl)propyl]-3-[3-(3-methylpiperidino)propyl]imidazolidin-2-ylidene}malononitrile], for which the inhibition at 1 µM was not below 80%. To `CC(C)N1CCC(N2CCN(CCCN3CCCC3C)C2=C(C#N)C#N)CC1` (stereo not drawn) [Compound 219, {1-(1-Isopropylpiperidin-4-yl)-3-[3-(2-methylpyrrolidin-1-yl)propyl]imidazolidin-2-ylidene}malononitrile] belongs not below 80%; to `N#CC(C#N)=C1N(CCCN2CC=CCC2)CCN1CCCN1CC=CCC1` [Compound 88, {1,3-bis[3-(1,2,3,6-Tetrahydropyridin-1-yl)propyl]imidazolidin-2-ylidene}malononitrile], not below 80%; to `N#CC(C#N)=C1N(CCCN2CCCCC2)CCN1C1CCN(CC2CC2)CC1` [Compound 229, [1-(1-Cyclopropylmethylpiperidin-4-yl)-3-(3-piperidinopropyl)imidazolidin-2-ylidene]malononitrile], not below 80%.

As for `CC1CC(C)CN(CCN2CCN(CCCN3CCC(C#N)CC3)C2=C(C#N)C#N)C1` (stereo not drawn) [Compound 42, {1-[3-(4-Cyanopiperidino)propyl]-3-[2-(3,5-dimethylpiperidino)ethyl]imidazolidin-2-ylidene}malononitrile], the inhibition at 1 µM was not below 80%.

Take `N#CCN1CCC(N2CCN(CCCN3CCCCC3)C2=C(C#N)C#N)CC1` [Compound 214, [1-(1-Cyanomethylpiperidin-4-yl)-3-(3-piperidinopropyl)imidazolidin-2-ylidene]malononitrile]: the inhibition at 1 µM was not below 80%. In the case of `N#CC(C#N)=C1N(CCCN2CCCC2)CCN1CCCN1CCCC1` [Compound 94, {1,3-Bis[3-(pyrrolidin-1-yl)propyl]imidazolidin-2-ylidene}malononitrile] it was not below 80%; in that of `CC1CCCN1CCCN1CCN(C2CCN(Cc3ccccc3)CC2)C1=C(C#N)C#N` (stereo not drawn) [Compound 127, {1-(1-Benzylpiperidin-4-yl)-3-[3-(2-methylpyrrolidin-1-yl)propyl]imidazolidin-2-ylidene}malononitrile], not below 80%. In the case of `N#CC(C#N)=C1N(CCCN2CCCCC2)CCN1CCN1CCc2ccccc2C1` [Compound 53, {1-[2-(1,2,3,4-Tetrahydroisoquinolin-2-yl)ethyl]-3-(3-piperidinopropyl)imidazolidin-2-ylidene}malononitrile] it was not below 80%; in that of `CN1CCN(CCCN2CCN(CCCN3CCCCC3)C2=C(C#N)C#N)CC1` [Compound 76, {1-[3-(4-Methylpiperazin-1-yl)propyl]-3-(3-piperidinopropyl)imidazolidin-2-ylidene}malononitrile], not below 80%.

With `C[C@H]1CCCN1CCN(C)C(=C(C#N)C#N)N1CCC(CN2CCCCC2)CC1` [Compound 153, ({N-methyl-N-[2-((S)-2-methylpyrrolidin-1-yl)ethyl]amino}(4-piperidinomethylpiperidino)methylene)malononitrile], the inhibition at 1 µM was not below 80%.

As to `CC1CCCN1CCCN1CCN(CCN2CCCCC2)C1=C(C#N)C#N` (stereo not drawn) [Compound 33, {1-[3-(2-Methylpyrrolidin-1-yl)propyl]-3-(2-piperidinoethyl)imidazolidin-2-ylidene}malononitrile], the inhibition at 1 µM was not below 80%. In the case of `C[C@@H]1CCCN1CCCN1CCN(CCCN2CCC[C@@H]2C)C1=C(C#N)S(=O)(=O)c1ccccc1` [Compound 246, {1-[3-((S)-2-methylpyrrolidin-1-yl)propyl]-3-[3-((R)-2-methylpyrrolidin-1-yl)propyl]imidazolidin-2-ylidene}benzenesulfonylacetonitrile] it was not below 80%.
